Source: US9957267B2, “Somatostatin modulators and uses thereof” (Crinetics Pharmaceuticals, Inc., priority 2015, dated 2018)

Assays:
Assay type in all cases: cell-based
[1] = molecular target: T1, human somatostatin receptor subtype 2a (Homo sapiens, UniProt P30874); experiment: cAMP assay for SSTR2a agonists (HTRF cAMP kit, NKH-477 stimulated); settings: CHO cells stably expressing human SSTR2a, 1.6 μM NKH-477
T1 construct: expressed in transfected cells
Description: Chinese hamster ovary (CHO) cells stably expressing one of the six human or rodent somatostatin receptor subtypes are grown to 85-100% confluence on standard tissue culture dishes in F12-Ham's growth media (Hyclone) with following additives: 10% donor calf serum (Hyclone), 200 U/mL penicillin (Hyclone), 200 μg/mL streptomycin (Hyclone), 20 mM HEPES (Hyclone), 200 μg/mL hygromycin Hyclone.
General overview: All SSTR subtypes are Gi coupled G-protein coupled receptors (GPCRs) that lead to decreases in intracellular cyclic AMP (cAMP) when activated by an agonist. Therefore, measurement of intracellular cAMP levels can be used to assess whether compounds of the invention are agonists of SSTR subtypes (John Kelly, Troy Stevens, W. Joseph Thompson, and Roland Seifert, Current Protocols in Pharmacology, 2005, 2.2.1-2.2). One example of an intracellular cAMP assay is described below.
Four days prior to the assay, 5000 Chinese hamster ovary (CHO) cells stably expressing the human somatostatin receptor subtype 2a are plated in each well of a 96-well tissue culture plate (Nest Biotech Cell, flat bottom with low evaporation tissue culture treated; Polystyrene; Non-Pyrogenic) in F12-Ham's media (100 μL/well) supplemented with 200 μg/mL of hygromycin. Incubate at 37 C, 5% CO2, 95% humidity for four days. The cells should reach full confluence. On the day of the assay, various dilutions of the compounds of the invention are prepared in assay buffer (HRTF cAMP kit, Cisbio) in the presence of 1.6 μM NKH-477 (a water-soluble forskolin derivative) and 50 μL of the dilutions are added to the cultured cells and incubated for 20 minutes at 37° C. […] 50 μL of lysis buffer (HRTF cAMP kit, Cisbio) is added to each well and incubated at room temperature for 30 minutes, after which 150 μL assay buffer is added to each well. In a 384-well plate (Grenier, 784-080), 10 μL of assay mixture is added to 10 μL of developing mixture, containing cAMP detection and visualization antibodies are added and the assay is allowed incubate for 1-24 hours at room temperature. The intracellular cAMP concentrations are then measured using a commercially available detection kit (for example, the cAMP HTRF kit, Cisbio). The measured intracellular cAMP concentrations are plotted vs. the concentration of the compounds of the invention and the EC50 of the compounds are calculated using standard methods.

SSTR1 = molecular target: T2, SSTR1 (Homo sapiens, UniProt P30872); experiment: cAMP functional agonist assay, CHO cells expressing SSTR1; settings: CHO cells stably expressing SSTR1, cAMP; read-out: SSTR1 EC50
T2 construct: expressed in transfected cells
T2 sequence (P30872 whole entry): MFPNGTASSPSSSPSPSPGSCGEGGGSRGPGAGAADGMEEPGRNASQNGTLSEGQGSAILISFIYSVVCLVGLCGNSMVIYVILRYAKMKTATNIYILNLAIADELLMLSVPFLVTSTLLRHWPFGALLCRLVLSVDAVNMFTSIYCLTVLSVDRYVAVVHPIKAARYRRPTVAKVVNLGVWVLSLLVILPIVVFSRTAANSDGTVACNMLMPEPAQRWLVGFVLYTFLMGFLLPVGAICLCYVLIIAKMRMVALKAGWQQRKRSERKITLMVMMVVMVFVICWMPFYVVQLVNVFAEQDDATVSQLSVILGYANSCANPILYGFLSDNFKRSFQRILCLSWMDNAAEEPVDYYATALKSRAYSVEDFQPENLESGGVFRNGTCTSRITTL
Procedure, shortened: (§1)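 CHO cells stably expressing the human or rodent somatostatin receptor subtype. Agonism measured as decrease in intracellular cAMP via Gi coupling.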

SSTR3 = SSTR3 (UniProt P32745); experiment: cAMP functional agonist assay, CHO cells expressing SSTR3; settings: CHO cells stably expressing SSTR3, cAMP
Chain of SSTR3 (P32745 whole entry): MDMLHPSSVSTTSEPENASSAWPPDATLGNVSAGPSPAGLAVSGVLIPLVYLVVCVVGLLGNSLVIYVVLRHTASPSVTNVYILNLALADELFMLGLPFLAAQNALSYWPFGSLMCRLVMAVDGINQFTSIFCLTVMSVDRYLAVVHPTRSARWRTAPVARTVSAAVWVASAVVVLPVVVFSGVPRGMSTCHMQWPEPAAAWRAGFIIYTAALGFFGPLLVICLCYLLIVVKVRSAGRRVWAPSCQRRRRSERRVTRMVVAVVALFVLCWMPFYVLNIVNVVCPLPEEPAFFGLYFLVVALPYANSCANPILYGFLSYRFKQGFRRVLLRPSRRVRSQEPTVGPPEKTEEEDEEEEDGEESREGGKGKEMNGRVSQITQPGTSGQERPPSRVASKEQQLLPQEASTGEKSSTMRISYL
Procedure, shortened: (§2)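 CHO cells stably expressing a single somatostatin receptor subtype, grown to 85–100% confluence in F12-Ham's with 10% donor calf serum and hygromycin. Agonism assessed as a decrease in intracellular cAMP via Gi coupling.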

SSTR4 = molecular target: T3, SSTR4 (Homo sapiens, UniProt P31391); experiment: cAMP functional agonist assay, CHO cells expressing SSTR4; settings: CHO cells stably expressing SSTR4, cAMP; read-out: SSTR4 EC50
T3 construct: expressed in transfected cells
T3 sequence (P31391 whole entry): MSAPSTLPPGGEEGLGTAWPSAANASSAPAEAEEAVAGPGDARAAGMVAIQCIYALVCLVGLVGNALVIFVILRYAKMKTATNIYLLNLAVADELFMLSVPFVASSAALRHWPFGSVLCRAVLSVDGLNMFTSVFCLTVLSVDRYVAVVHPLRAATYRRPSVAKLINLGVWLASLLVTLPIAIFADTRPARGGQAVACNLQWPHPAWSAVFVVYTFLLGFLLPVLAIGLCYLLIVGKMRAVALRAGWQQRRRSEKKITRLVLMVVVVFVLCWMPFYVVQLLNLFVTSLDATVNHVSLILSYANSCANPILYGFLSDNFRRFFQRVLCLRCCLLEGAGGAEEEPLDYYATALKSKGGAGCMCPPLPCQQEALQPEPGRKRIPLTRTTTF
Procedure, shortened: as §1

SSTR5 = molecular target: T4, SSTR5 (Homo sapiens, UniProt P35346); experiment: cAMP functional agonist assay, CHO cells expressing SSTR5; settings: CHO cells stably expressing SSTR5, cAMP
T4 construct: expressed in transfected cells
T4 sequence (P35346 whole entry): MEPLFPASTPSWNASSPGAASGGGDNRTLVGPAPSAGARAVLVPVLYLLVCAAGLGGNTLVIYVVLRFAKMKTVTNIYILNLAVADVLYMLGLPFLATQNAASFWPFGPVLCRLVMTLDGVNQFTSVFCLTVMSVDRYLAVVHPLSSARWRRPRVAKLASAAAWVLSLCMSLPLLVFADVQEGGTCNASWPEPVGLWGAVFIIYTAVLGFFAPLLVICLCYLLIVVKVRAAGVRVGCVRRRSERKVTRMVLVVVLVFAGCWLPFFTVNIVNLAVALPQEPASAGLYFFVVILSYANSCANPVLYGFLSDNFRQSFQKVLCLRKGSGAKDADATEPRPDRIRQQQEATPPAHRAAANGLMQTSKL
Procedure, shortened: as §2

T1 sequence (P30874 whole entry): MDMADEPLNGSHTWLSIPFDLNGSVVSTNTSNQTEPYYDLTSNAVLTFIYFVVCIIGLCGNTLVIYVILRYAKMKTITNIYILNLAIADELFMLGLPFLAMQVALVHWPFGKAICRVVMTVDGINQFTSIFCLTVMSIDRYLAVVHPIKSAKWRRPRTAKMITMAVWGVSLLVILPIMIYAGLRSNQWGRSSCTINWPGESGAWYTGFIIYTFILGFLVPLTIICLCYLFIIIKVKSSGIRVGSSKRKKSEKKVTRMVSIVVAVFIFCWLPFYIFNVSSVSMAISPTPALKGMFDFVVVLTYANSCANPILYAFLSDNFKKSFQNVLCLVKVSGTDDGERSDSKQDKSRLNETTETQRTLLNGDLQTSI

5-({[(2S)-2-aminobutyl](methyl)amino}methyl)-6-(3,5-dimethylphenyl)-3-[3-hydroxy-5-(trifluoromethyl)phenyl]-3H,4H-pyrido[2,3-d]pyrimidin-4-one [Compound A-63]
EC50 [1]: < 100 nM | EC50 (SSTR1): 100 to 10000 nM | EC50 (SSTR3): < 100 nM | EC50 (SSTR4): < 100 nM | EC50 (SSTR5): > 10000 nM

CCCN(CCN)Cc1c(-c2cc(C)cc(C)c2)cnc2ncn(-c3cccc(O)c3)c(=O)c12 [Compound A-4, 5-{[(2-aminoethyl)(propyl)amino]methyl}-6-(3,5-dimethylphenyl)-3-(3-hydroxyphenyl)-3H,4H-pyrido[2,3-d]pyrimidin-4-one]
EC50 [1]: < 100 nM | EC50 (SSTR1): 100 to 10000 nM | EC50 (SSTR3): 100 to 10000 nM | EC50 (SSTR4): < 100 nM | EC50 (SSTR5): 100 to 10000 nM

Cc1cccc(-c2cnc3ncn(-c4cccc(O)c4)c(=O)c3c2CN(C)CC2CCCCN2)c1 (stereo not shown) [Compound A-21, 3-(3-hydroxyphenyl)-5-{[methyl(piperidin-2-ylmethyl)amino]methyl}-6-(3-methylphenyl)-3H,4H-pyrido[2,3-d]pyrimidin-4-one]
EC50 [1]: < 100 nM | EC50 (SSTR1): 100 to 10000 nM | EC50 (SSTR3): < 100 nM | EC50 (SSTR4): < 100 nM | EC50 (SSTR5): > 10000 nM

Cc1cc(C)cc(-c2cnc3ncn(-c4cc(O)cc(F)c4)c(=O)c3c2CN(C)C[C@@H]2CCCCN2)c1 [Compound A-27, 6-(3,5-dimethylphenyl)-3-(3-fluoro-5-hydroxyphenyl)-5-({methyl[(2S)-piperidin-2-ylmethyl]amino}methyl)-3H,4H-pyrido[2,3-d]pyrimidin-4-one]
EC50 [1]: < 100 nM | EC50 (SSTR1): 100 to 10000 nM | EC50 (SSTR3): < 100 nM | EC50 (SSTR4): < 100 nM | EC50 (SSTR5): 100 to 10000 nM

Cc1cc(Cl)cc(-c2cnc3ncn(-c4cc(O)cc(F)c4)c(=O)c3c2CN(C)C[C@@H]2CCCCN2)c1 [Compound A-28, 6-(3-chloro-5-methylphenyl)-3-(3-fluoro-5-hydroxyphenyl)-5-({methyl[(2S)-piperidin-2-ylmethyl]amino}methyl)-3H,4H-pyrido[2,3-d]pyrimidin-4-one]
EC50 [1]: < 100 nM | EC50 (SSTR1): 100 to 10000 nM | EC50 (SSTR3): < 100 nM | EC50 (SSTR4): < 100 nM | EC50 (SSTR5): 100 to 10000 nM

CN(Cc1c(-c2cccc(CCO)c2)cnc2ncn(-c3cccc(O)c3)c(=O)c12)C[C@@H]1CCCN1 [Compound A-32, 6-[3-(2-hydroxyethyl)phenyl]-3-(3-hydroxyphenyl)-5-({methyl[(2S)-pyrrolidin-2-ylmethyl]amino}methyl)-3H,4H-pyrido[2,3-d]pyrimidin-4-one]
EC50 [1]: < 100 nM | EC50 (SSTR1): > 10000 nM | EC50 (SSTR3): 100 to 10000 nM | EC50 (SSTR4): < 100 nM | EC50 (SSTR5): > 10000 nM

CN(Cc1c(-c2cccc(CO)c2)cnc2ncn(-c3cccc(O)c3)c(=O)c12)C[C@@H]1CCCN1 [Compound A-34, 6-[3-(hydroxymethyl)phenyl]-3-(3-hydroxyphenyl)-5-({methyl[(2S)-pyrrolidin-2-ylmethyl]amino}methyl)-3H,4H-pyrido[2,3-d]pyrimidin-4-one]
EC50 [1]: < 100 nM | EC50 (SSTR1): > 10000 nM | EC50 (SSTR3): 100 to 10000 nM | EC50 (SSTR4): < 100 nM | EC50 (SSTR5): > 10000 nM

Cc1cc(Cl)cc(-c2cnc3ncn(-c4cc(O)cc(C(F)(F)F)c4)c(=O)c3c2CN(C)C[C@@H]2CCCN2)c1 [Compound A-48, 6-(3-chloro-5-methylphenyl)-3-[3-hydroxy-5-(trifluoromethyl)phenyl]-5-({methyl[(2S)-pyrrolidin-2-ylmethyl]amino}methyl)-3H,4H-pyrido[2,3-d]pyrimidin-4-one]
EC50 [1]: < 100 nM | EC50 (SSTR1): 100 to 10000 nM | EC50 (SSTR3): < 100 nM | EC50 (SSTR4): < 100 nM | EC50 (SSTR5): > 10000 nM

Cc1cc(Cl)cc(-c2cnc3ncn(-c4cc(O)cc(Cl)c4)c(=O)c3c2CN(C)C[C@@H]2CCCN2)c1 [Compound A-49, 3-(3-chloro-5-hydroxyphenyl)-6-(3-chloro-5-methylphenyl)-5-({methyl[(2S)-pyrrolidin-2-ylmethyl]amino}methyl)-3H,4H-pyrido[2,3-d]pyrimidin-4-one]
EC50 [1]: < 100 nM | EC50 (SSTR1): 100 to 10000 nM | EC50 (SSTR3): < 100 nM | EC50 (SSTR4): < 100 nM | EC50 (SSTR5): > 10000 nM

Cc1cc(Cl)cc(-c2cnc3ncn(-c4cc(F)cc(C(N)=O)c4)c(=O)c3c2CN(C)C[C@@H]2CCCN2)c1 [Compound A-50, 3-[6-(3-chloro-5-methylphenyl)-5-({methyl[(2S)-pyrrolidin-2-ylmethyl]amino}methyl)-4-oxo-3H,4H-pyrido[2,3-d]pyrimidin-3-yl]-5-fluorobenzamide]
EC50 [1]: < 100 nM | EC50 (SSTR1): 100 to 10000 nM | EC50 (SSTR3): 100 to 10000 nM | EC50 (SSTR4): < 100 nM | EC50 (SSTR5): > 10000 nM

Cc1cc(Cl)cc(-c2cnc3ncn(-c4cc(F)cc(C(N)=O)c4)c(=O)c3c2CN(C)C[C@H]2CCCN2)c1 [Compound A-51, 3-[6-(3-chloro-5-methylphenyl)-5-({methyl[(2R)-pyrrolidin-2-ylmethyl]amino}methyl)-4-oxo-3H,4H-pyrido[2,3-d]pyrimidin-3-yl]-5-fluorobenzamide]
EC50 [1]: < 100 nM | EC50 (SSTR1): > 10000 nM | EC50 (SSTR3): < 100 nM | EC50 (SSTR4): < 100 nM | EC50 (SSTR5): > 10000 nM

Cc1cc(Cl)cc(-c2cnc3ncn(-c4cc(O)ccc4F)c(=O)c3c2CN(C)C[C@@H]2CCCN2)c1 [Compound A-54, 6-(3-chloro-5-methylphenyl)-3-(2-fluoro-5-hydroxyphenyl)-5-({methyl[(2S)-pyrrolidin-2-ylmethyl]amino}methyl)-3H,4H-pyrido[2,3-d]pyrimidin-4-one]
EC50 [1]: < 100 nM | EC50 (SSTR1): 100 to 10000 nM | EC50 (SSTR3): < 100 nM | EC50 (SSTR4): < 100 nM | EC50 (SSTR5): > 10000 nM

Cc1cc(C)cc(-c2cnc3nc(C)n(-c4cc(O)cc(F)c4)c(=O)c3c2CN(C)C[C@@H]2CCCN2)c1 [Compound A-55, 6-(3,5-dimethylphenyl)-3-(3-fluoro-5-hydroxyphenyl)-2-methyl-5-({methyl[(2S)-pyrrolidin-2-ylmethyl]amino}methyl)-3H,4H-pyrido[2,3-d]pyrimidin-4-one]
EC50 [1]: < 100 nM | EC50 (SSTR1): > 10000 nM | EC50 (SSTR3): 100 to 10000 nM | EC50 (SSTR4): < 100 nM | EC50 (SSTR5): 100 to 10000 nM

CCc1nc2ncc(-c3cc(C)cc(Cl)c3)c(CN(C)C[C@@H]3CCCN3)c2c(=O)n1-c1cccc(O)c1 [Compound A-57, 6-(3-chloro-5-methylphenyl)-2-ethyl-3-(3-hydroxyphenyl)-5-({methyl[(2S)-pyrrolidin-2-ylmethyl]amino}methyl)-3H,4H-pyrido[2,3-d]pyrimidin-4-one]
EC50 [1]: < 100 nM | EC50 (SSTR1): 100 to 10000 nM | EC50 (SSTR3): < 100 nM | EC50 (SSTR4): < 100 nM | EC50 (SSTR5): 100 to 10000 nM

Cc1cc(Cl)cc(-c2cnc3nc(C(C)C)n(-c4cccc(O)c4)c(=O)c3c2CN(C)C[C@@H]2CCCN2)c1 [Compound A-58, 6-(3-chloro-5-methylphenyl)-3-(3-hydroxyphenyl)-5-({methyl[(2S)-pyrrolidin-2-ylmethyl]amino}methyl)-2-(propan-2-yl)-3H,4H-pyrido[2,3-d]pyrimidin-4-one]
EC50 [1]: < 100 nM | EC50 (SSTR1): 100 to 10000 nM | EC50 (SSTR3): 100 to 10000 nM | EC50 (SSTR4): < 100 nM | EC50 (SSTR5): 100 to 10000 nM

Cc1cc(Cl)cc(-c2cnc3nc(C)n(-c4cc(O)cc(F)c4)c(=O)c3c2CN(C)C[C@@H]2CCCN2)c1 [Compound A-59, 6-(3-chloro-5-methylphenyl)-3-(3-fluoro-5-hydroxyphenyl)-2-methyl-5-({methyl[(2S)-pyrrolidin-2-ylmethyl]amino}methyl)-3H,4H-pyrido[2,3-d]pyrimidin-4-one]
EC50 [1]: < 100 nM | EC50 (SSTR1): > 10000 nM | EC50 (SSTR3): < 100 nM | EC50 (SSTR4): < 100 nM | EC50 (SSTR5): 100 to 10000 nM

CC[C@H](N)CN(C)Cc1c(-c2cc(C)cc(C)c2)cnc2ncn(-c3cc(O)cc(F)c3)c(=O)c12 [Compound A-62, 5-({[(2S)-2-aminobutyl](methyl)amino}methyl)-6-(3,5-dimethylphenyl)-3-(3-fluoro-5-hydroxyphenyl)-3H,4H-pyrido[2,3-d]pyrimidin-4-one]
EC50 [1]: < 100 nM | EC50 (SSTR1): 100 to 10000 nM | EC50 (SSTR3): < 100 nM | EC50 (SSTR4): < 100 nM | EC50 (SSTR5): 100 to 10000 nM
